{"source": "ChEMBL document CHEMBL1147334", "about": "“Starfish saponins, part 49. New cytotoxic steroidal glycosides from the starfish Fromia monilis” (J Nat Prod, 1993)"}
{"system": "Vero", "assay": "Cytotoxicity against african green monkey Vero cells after 24 hrs measured per 5x10^5 cells by neutral red uptake assay", "type": "cell-based", "conditions": "chlorocebus sabaeus", "units": {"Activity": "µg"}}
{"smiles": "CO[C@@H]1[C@@H](O)[C@H](O[C@@H]2CO[C@@H](O[C@@H]3CO[C@@H](OCC[C@@H](/C=C/[C@@H](C)[C@H]4[C@@H](O)[C@@H](O)[C@@H]5[C@]4(C)CC[C@@H]4[C@@]6(C)CC[C@H](O)[C@H](O)[C@@H]6[C@@H](O)C[C@]45O)C(C)C)[C@H](O)[C@H]3O)[C@H](O)[C@H]2OC)OC[C@H]1O", "Activity": 10}
{"smiles": "CO[C@H]1[C@H](O[C@H]2CC[C@@]3(C)[C@H]([C@H]2O)[C@H](O)C[C@H]2[C@@H]4[C@H](O)C[C@H]([C@H](C)CC[C@H](O)C(C)C)[C@@]4(C)CC[C@@H]23)OC[C@@H](O)[C@@H]1O", "note": "[MONILOSIDE C]", "Activity": 3}
{"smiles": "CO[C@@H]1[C@@H](O)[C@H](OCC[C@@H](/C=C/[C@@H](C)[C@H]2[C@@H](O)[C@@H](O)[C@@H]3[C@]2(C)CC[C@@H]2[C@@]4(C)CC[C@H](O)[C@H](O)[C@@H]4[C@@H](O)C[C@]23O)C(C)C)OC[C@H]1O[C@@H]1OC[C@H](O)[C@H](O)[C@H]1O", "note": "[MONILOSIDE F]", "Activity": 10}
{"smiles": "CO[C@@H]1[C@@H](O)[C@H](O[C@@H]2CO[C@@H](O[C@@H]3CO[C@@H](OCC[C@@H](CC[C@@H](C)[C@H]4[C@@H](O)[C@@H](O)[C@@H]5[C@]4(C)CC[C@@H]4[C@@]6(C)CC[C@H](O)[C@H](O)[C@@H]6[C@@H](O)C[C@]45O)C(C)C)[C@H](O)[C@H]3O)[C@H](O)[C@H]2OC)OC[C@H]1O", "note": "[MONILOSIDE G]", "Activity": 10}
{"smiles": "CO[C@H]1[C@H](O[C@H]2CC[C@]3(C)C4=CC[C@]5(C)[C@@H]([C@H](C)CC[C@H](O)C(C)C)C[C@@H](O)[C@H]5C4=CC[C@H]3[C@H]2O)OC[C@@H](O)[C@@H]1O", "note": "[MONILOSIDE B]", "Activity": 3}
{"smiles": "CO[C@@H]1[C@@H](O)[C@H](O[C@@H]2CO[C@@H](O[C@@H]3CO[C@@H](OCC[C@@H](CC[C@@H](C)[C@H]4[C@@H](O)[C@@H](O)[C@@H]5[C@]4(C)CC[C@@H]4[C@@]6(C)CC[C@H](O)[C@H](O)[C@@H]6[C@@H](O)C[C@]45O)C(C)C)[C@H](O)[C@H]3O)[C@H](O)[C@H]2O)OC[C@H]1O", "note": "[MONILOSIDE I]", "Activity": 1}
{"smiles": "CO[C@@H]1[C@@H](O)[C@H](OCC[C@@H](CC[C@@H](C)[C@H]2[C@@H](O)[C@@H](O)[C@@H]3[C@]2(C)CC[C@@H]2[C@@]4(C)CC[C@H](O)[C@H](O)[C@@H]4[C@@H](O)C[C@]23O)C(C)C)OC[C@H]1O[C@@H]1OC[C@H](O)[C@H](O)[C@H]1O", "note": "[MONILOSIDE E]", "Activity": 10}
{"smiles": "CO[C@H]1[C@H](O[C@H]2CC[C@]3(C)C4=CC[C@]5(C)[C@@H]([C@H](C)CC[C@H](O)C(C)C)C[C@@H](O)[C@H]5C4=CC[C@H]3C2)OC[C@@H](O)[C@@H]1O", "note": "[MONILOSIDE A]", "Activity": 3}
{"smiles": "CO[C@H]1[C@H](O[C@H]2CC[C@@]3(C)[C@H]([C@H]2O)[C@H](O)C[C@]2(O)[C@@H]3CC[C@]3(C)[C@@H]([C@H](C)CC[C@H](O)C(C)C)C[C@@H](O)[C@H]32)OC[C@@H](O)[C@@H]1O", "note": "[MONILOSIDE D]", "Activity": 3}
